Test results taken from patent publication US20260097126A1, “PHARMACEUTICAL FORMULATIONS AND METHODS FOR THE TREATMENT OF METABOLIC AND LIVER DISORDERS” (priority 2022, published 2026).
pIC50: −log10 of the molar value. Numbered stars: 1 amine (or outer) side, 2 acyl side, 3 side chain; on linkers, the order of the positions; unused ones are H or OH. Square brackets hold non-standard residues; d marks the D form. Side chains are listed from the residue outwards. Peptide text beside a SMILES is read from it. * marks the point of attachment. Nonadecanoyl(19-PO3H2) = O=C(CCCCCCCCCCCCCCCCCCP(=O)(O)O)*; γGlu = O=C(O)[C@H](CCC(=O)[*:2])N[*:1]; AEEA = NCCOCCOCC(=O)O; Aib = CC(C)(N)C(=O)O

Experiments:
GLP-1 receptor [1] = target: T1, GLP-1 receptor (Homo sapiens, UniProt P43220); experiment: TagLite binding assay, GLP-1 receptor; conditions: read-out: GLP-1 receptor IC 50
T1 sequence (P43220 24-463): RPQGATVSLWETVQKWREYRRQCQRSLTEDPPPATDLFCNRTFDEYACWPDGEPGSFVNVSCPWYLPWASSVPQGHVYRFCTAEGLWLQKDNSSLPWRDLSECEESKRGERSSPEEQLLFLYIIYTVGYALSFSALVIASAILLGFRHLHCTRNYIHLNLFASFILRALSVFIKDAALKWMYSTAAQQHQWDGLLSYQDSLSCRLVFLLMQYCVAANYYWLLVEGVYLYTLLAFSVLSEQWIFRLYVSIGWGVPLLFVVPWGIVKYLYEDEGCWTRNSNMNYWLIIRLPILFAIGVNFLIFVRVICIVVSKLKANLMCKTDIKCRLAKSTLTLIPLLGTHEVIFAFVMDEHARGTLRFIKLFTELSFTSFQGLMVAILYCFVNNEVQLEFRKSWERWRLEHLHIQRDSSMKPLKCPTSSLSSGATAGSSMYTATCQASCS

GIP receptor [2] = target: T2, GIP receptor (Homo sapiens, UniProt P48546); experiment: TagLite binding assay, GIP receptor; conditions: read-out: GIP receptor IC 50
T2 sequence (P48546 22-466): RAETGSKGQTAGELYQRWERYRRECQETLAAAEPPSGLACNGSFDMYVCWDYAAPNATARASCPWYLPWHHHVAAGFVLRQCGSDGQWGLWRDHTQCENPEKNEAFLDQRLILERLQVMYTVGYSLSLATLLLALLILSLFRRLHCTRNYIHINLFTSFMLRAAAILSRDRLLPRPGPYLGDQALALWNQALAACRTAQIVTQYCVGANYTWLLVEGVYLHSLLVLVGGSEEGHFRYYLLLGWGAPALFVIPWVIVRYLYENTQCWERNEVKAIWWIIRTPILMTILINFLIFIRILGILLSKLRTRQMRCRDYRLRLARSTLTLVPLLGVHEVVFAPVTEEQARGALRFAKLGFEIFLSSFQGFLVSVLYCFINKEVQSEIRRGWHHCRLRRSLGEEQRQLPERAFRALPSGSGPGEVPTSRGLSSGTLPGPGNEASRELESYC

[3] = tested on: mice fed a Gubra amylin NASH (GAN) diet; experiment: Biological effects in GAN diet-induced NASH mice; format: in vivo; conditions: after two weeks; for Gal-3 Relative / Gal-3 Total: liver Galectin-3, histological quantitative assessment; for α-SMA Relative / α-SMA Total: liver alpha-smooth muscle actin, histological quantitative assessment; for TG Relative / TG Total: liver triglycerides
Description: NASH was induced in mice by feeding mice a Gubra amylin NASH (GAN) diet as described in Boland et al. World J Gastroenterol. 2019, 25(33): 4904-4920. One week prior to administration of a first dose of compounds, the mice were weighed and randomized, and their food intake was measured. Mice were randomly assigned to dosing groups, with twelve mice per group. […] Compound dose titration (nmol/kg): 0.6 (day 0), 1.2 (day 1), 2.4 (day 2), 4.8 (day 3), 4.8 (day 4), 12 (day 5), 30.0 (from day 6).
After two weeks, animals were sacrificed. Plasma enzymes (P-ALT (alanine aminotransferase) and P-AST (aspartate aminotransferase)), total plasma triglycerides, and total plasma cholesterol were measured, and terminal necropsy of each liver was carried out, determining relative liver weight as a percentage of body weight, assaying total liver biochemistry including total liver triglycerides, plasma insulin and total liver cholesterol, as well as histological evaluation of Galectin-3, and alpha-smooth muscle actin.

[4] = Pharmacokinetic study of Compounds 4, 14, 15, 17 in monkeys; conditions: cynomolgus monkey, plasma, sc, 0.2 mg/kg
Description: The formulations were administered to cynomolgus monkeys at a dose of 0.2 mg/kg. Plasma concentration versus time data was collected and pharmacokinetic values determined.

GIP receptor [5] = target: T2, GIP receptor; experiment: HSA modulated binding assay, GIP receptor; conditions: binding with 2% HSA to binding with 0% HSA
GLP-1 receptor [6] = target: T1, GLP-1 receptor; experiment: HSA modulated binding assay, GLP-1 receptor; conditions: binding with 2% HSA to binding with 0% HSA

SMILES | pIC50 (GLP-1 receptor [1]) | pIC50 (GIP receptor [2]) | liver Galectin-3 compared to tirzepatide or vehicle (in words) [3] | liver alpha-smooth muscle actin compared to tirzepatide (in words) [3] | liver triglycerides compared to tirzepatide or vehicle (in words) [3] | Gal-3 Relative [3] | Gal-3 Total [3] | α-SMA Relative [3] | α-SMA Total [3] | TG Relative [3] | TG Total [3] | AUC(0-inf) [4] | AUC(0-t) [4] | CL/F [4] | Cmax [4] | Tmax [4] | Vd/F [4] | half-life [4] | GIP receptor Ratio of HSA/No HSA (GIP receptor [5]) | GLP-1 receptor Ratio of HSA/No HSA (GLP-1 receptor [6])
CC[C@H](C)[C@H](NC(=O)[C@H](CC(C)C)NC(=O)[C@H](Cc1c[nH]c2ccccc12)NC(=O)[C@H](CCC(N)=O)NC(=O)[C@@H](NC(=O)[C@H](Cc1ccccc1)NC(=O)[C@H](C)NC(=O)[C@H](CCCCNC(=O)COCCOCCNC(=O)COCCOCCNC(=O)CC[C@H](NC(=O)CCCCCCCCCCCCCCCCCCC(=O)O)P(=O)(O)O)NC(=O)[C@H](CCC(N)=O)NC(=O)[C@H](C)NC(=O)[C@@H](NC(=O)[C@H](CCCCN)NC(=O)[C@H](CC(=O)O)NC(=O)[C@H](CC(C)C)NC(=O)C(C)(C)NC(=O)[C@@H](NC(=O)[C@H](CO)NC(=O)[C@H](Cc1ccc(O)cc1)NC(=O)[C@H](CC(=O)O)NC(=O)[C@H](CO)NC(=O)[C@@H](NC(=O)[C@H](Cc1ccccc1)NC(=O)[C@@H](NC(=O)CNC(=O)[C@H](CCC(=O)O)NC(=O)C(C)(C)NC(=O)[C@@H](N)Cc1ccc(O)cc1)[C@@H](C)O)[C@@H](C)O)[C@@H](C)CC)[C@@H](C)CC)C(C)C)C(=O)N[C@@H](C)C(=O)NCC(=O)NCC(=O)N1CCC[C@H]1C(=O)N[C@@H](CO)C(=O)N[C@@H](CO)C(=O)NCC(=O)N[C@@H](C)C(=O)N1CCC[C@H]1C(=O)N1CCC[C@H]1C(=O)N1CCC[C@H]1C(=O)N[C@@H](CO)C(N)=O [Compound 8] | 6.54 | 6.65 | lower relative and total liver Galectin-3 as compared to administration of tirzepatide or vehicle alone | lower relative and total liver alpha-smooth muscle actin as compared to administration of tirzepatide | lower relative and total liver triglycerides as compared to administration of tirzepatide or vehicle alone | 5.8 ± 0.6 percent fractional area | 117 ± 12 mg | 4.3 ± 0.5 percent fractional area | 83 ± 8 mg | 40 ± 3 mg per/g liver | 75 ± 7 mg per/liver |  |  |  |  |  |  |  |  | 
CC[C@H](C)[C@H](NC(=O)[C@H](CC(C)C)NC(=O)[C@H](Cc1c[nH]c2ccccc12)NC(=O)[C@H](CCC(N)=O)NC(=O)[C@@H](NC(=O)[C@H](Cc1ccccc1)NC(=O)[C@H](C)NC(=O)[C@H](CCC(N)=O)NC(=O)[C@H](CCC(N)=O)NC(=O)[C@H](C)NC(=O)[C@@H](NC(=O)[C@H](CCCCNC(=O)COCCOCCNC(=O)COCCOCCNC(=O)CC[C@H](NC(=O)CCCCCCCCCCCCCCCCCCP(=O)(O)O)C(=O)O)NC(=O)[C@H](CC(=O)O)NC(=O)[C@H](CC(C)C)NC(=O)C(C)(C)NC(=O)[C@@H](NC(=O)[C@H](CO)NC(=O)[C@H](Cc1ccc(O)cc1)NC(=O)[C@H](CC(=O)O)NC(=O)[C@H](CO)NC(=O)[C@@H](NC(=O)[C@H](Cc1ccccc1)NC(=O)[C@@H](NC(=O)CNC(=O)[C@H](CCC(=O)O)NC(=O)C(C)(C)NC(=O)[C@@H](N)Cc1ccc(O)cc1)[C@@H](C)O)[C@@H](C)O)[C@@H](C)CC)[C@@H](C)CC)C(C)C)C(=O)N[C@@H](C)C(=O)NCC(=O)NCC(=O)N1CCC[C@H]1C(=O)N[C@@H](CO)C(=O)N[C@@H](CO)C(=O)NCC(=O)N[C@@H](C)C(=O)N1CCC[C@H]1C(=O)N1CCC[C@H]1C(=O)N1CCC[C@H]1C(=O)N[C@@H](CO)C(N)=O [Compound 15] (H-Y[Aib]EGTFTSDYSI[Aib]LDK([AEEA-AEEA-γGlu-Nonadecanoyl(19-PO3H2)])IAQQAFVQWLIAGGPSSGAPPPS-NH2) |  |  |  |  |  |  |  |  |  |  |  | 227 µg·h/mL | 221 µg·h/mL | 21.4 mL/day/kg | 2260 ng/mL | 18.7 h | 0.114 L/kg | 89.3 h |  | 
CC[C@H](C)[C@H](NC(=O)[C@H](CC(C)C)NC(=O)[C@H](Cc1c[nH]c2ccccc12)NC(=O)[C@H](CCC(N)=O)NC(=O)[C@@H](NC(=O)[C@H](Cc1ccccc1)NC(=O)[C@H](C)NC(=O)[C@H](CCCCNC(=O)COCCOCCNC(=O)COCCOCCNC(=O)CC[C@H](NC(=O)CCCCCCCCCCCCCCCCCCP(=O)(O)OCc1ccccc1)P(=O)(O)O)NC(=O)[C@H](CCC(N)=O)NC(=O)[C@H](C)NC(=O)[C@@H](NC(=O)[C@H](CCCCN)NC(=O)[C@H](CC(=O)O)NC(=O)[C@H](CC(C)C)NC(=O)C(C)(C)NC(=O)[C@@H](NC(=O)[C@H](CO)NC(=O)[C@H](Cc1ccc(O)cc1)NC(=O)[C@H](CC(=O)O)NC(=O)[C@H](CO)NC(=O)[C@@H](NC(=O)[C@H](Cc1ccccc1)NC(=O)[C@@H](NC(=O)CNC(=O)[C@H](CCC(=O)O)NC(=O)C(C)(C)NC(=O)[C@@H](N)Cc1ccc(O)cc1)[C@@H](C)O)[C@@H](C)O)[C@@H](C)CC)[C@@H](C)CC)C(C)C)C(=O)N[C@@H](C)C(=O)NCC(=O)NCC(=O)N1CCC[C@H]1C(=O)N[C@@H](CO)C(=O)N[C@@H](CO)C(=O)NCC(=O)N[C@@H](C)C(=O)N1CCC[C@H]1C(=O)N1CCC[C@H]1C(=O)N1CCC[C@H]1C(=O)N[C@@H](CO)C(N)=O [Compound 12] |  |  | lower relative and total liver Galectin-3 as compared to administration of tirzepatide or vehicle alone | lower relative and total liver alpha-smooth muscle actin as compared to administration of tirzepatide | lower relative and total liver triglycerides as compared to administration of tirzepatide or vehicle alone | 5.7 ± 0.5 percent fractional area | 113 ± 10 mg | 4.4 ± 0.6 percent fractional area | 84 ± 8 mg | 35 ± 3 mg per/g liver | 63 ± 5 mg per/liver |  |  |  |  |  |  |  | 1.70 | 5.26
CC[C@H](C)[C@H](NC(=O)[C@H](CC(C)C)NC(=O)[C@H](Cc1c[nH]c2ccccc12)NC(=O)[C@H](CCC(N)=O)NC(=O)[C@@H](NC(=O)[C@H](Cc1ccccc1)NC(=O)[C@H](C)NC(=O)[C@H](CCCCNC(=O)COCCOCCNC(=O)COCCOCCNC(=O)CC[C@H](NC(=O)CCCCCCCCCCCCCCCCCCP(=O)(O)O)C(=O)O)NC(=O)[C@H](CCC(N)=O)NC(=O)[C@H](C)NC(=O)[C@@H](NC(=O)[C@H](CCCCN)NC(=O)[C@H](CC(=O)O)NC(=O)[C@H](CC(C)C)NC(=O)C(C)(C)NC(=O)[C@@H](NC(=O)[C@H](CO)NC(=O)[C@H](Cc1ccc(O)cc1)NC(=O)[C@H](CC(=O)O)NC(=O)[C@H](CO)NC(=O)[C@@H](NC(=O)[C@H](Cc1ccccc1)NC(=O)[C@@H](NC(=O)CNC(=O)[C@H](CCC(=O)O)NC(=O)C(C)(C)NC(=O)[C@@H](N)Cc1ccc(O)cc1)[C@@H](C)O)[C@@H](C)O)[C@@H](C)CC)C(C)C)C(C)C)C(=O)N[C@@H](CCCNC(=N)N)C(=O)NCC(=O)NCC(=O)N1CCC[C@H]1C(=O)N[C@@H](CO)C(=O)N[C@@H](CO)C(=O)NCC(=O)N[C@@H](C)C(=O)N1CCC[C@H]1C(=O)N1CCC[C@H]1C(=O)N1CCC[C@H]1C(=O)N[C@@H](CO)C(N)=O [Compound 17] (H-Y[Aib]EGTFTSDYSI[Aib]LDKVAQK([AEEA-AEEA-γGlu-Nonadecanoyl(19-PO3H2)])AFVQWLIRGGPSSGAPPPS-NH2) |  |  |  |  |  |  |  |  |  |  |  | 346 µg·h/mL | 316 µg·h/mL | 14.2 mL/day/kg | 1980 ng/mL | 28 h | 0.113 L/kg | 134 h |  | 
CC[C@H](C)[C@H](NC(=O)[C@H](CC(C)C)NC(=O)[C@H](Cc1c[nH]c2ccccc12)NC(=O)[C@H](CCC(N)=O)NC(=O)[C@@H](NC(=O)[C@H](Cc1ccccc1)NC(=O)[C@H](C)NC(=O)[C@H](CCCCNC(=O)COCCOCCNC(=O)COCCOCCNC(=O)CC[C@H](NC(=O)CCCCCCCCCCCCCCCCCCP(=O)(O)O)C(=O)O)NC(=O)[C@H](CCC(N)=O)NC(=O)[C@H](C)NC(=O)[C@@H](NC(=O)[C@H](CCCCN)NC(=O)[C@H](CC(=O)O)NC(=O)[C@H](CC(C)C)NC(=O)C(C)(C)NC(=O)[C@@H](NC(=O)[C@H](CO)NC(=O)[C@H](Cc1ccc(O)cc1)NC(=O)[C@H](CC(=O)O)NC(=O)[C@H](CO)NC(=O)[C@@H](NC(=O)[C@H](Cc1ccccc1)NC(=O)[C@@H](NC(=O)CNC(=O)[C@H](CCC(=O)O)NC(=O)C(C)(C)NC(=O)[C@@H](N)Cc1ccc(O)cc1)[C@@H](C)O)[C@@H](C)O)[C@@H](C)CC)[C@@H](C)CC)C(C)C)C(=O)N[C@@H](C)C(=O)NCC(=O)NCC(=O)N1CCC[C@H]1C(=O)N[C@@H](CO)C(=O)N[C@@H](CO)C(=O)NCC(=O)N[C@@H](C)C(=O)N1CCC[C@H]1C(=O)N1CCC[C@H]1C(=O)N1CCC[C@H]1C(=O)N[C@@H](CO)C(N)=O [Compound 14] |  |  |  |  |  |  |  |  |  |  |  | 179 µg·h/mL | 178 µg·h/mL | 28.6 mL/day/kg | 1430 ng/mL | 24 h | 0.104 L/kg | 60.9 h |  | 
